Earlier results, collected in paper PMC8158804 (ACS Omega, 2021).

Settings: critical aggregation concentration, conductivity, pure water

| Substance | CAC (−log M) |
| --- | --- |
| Ac-GAVILEE | 3.15 −log M |
| Ac-GAVILEE-NH2 | 3.10 −log M |
| AcLIIKNH2 [LI2K] | 2.99 −log M |

Settings: critical aggregation concentration, fluorimetry, pure water

| Substance | CAC (−log M) |
| --- | --- |
| AcGAAVILRRNH2 | 1.52 −log M |
| AcGVPGVGKKNH2 [KK8] | 2.10 −log M |
| AcIIIGVPGVGKKNH2 [IKK11] | 2.66 −log M |
| AcIIIGVPGVGVPGVGKKNH2 [IKK16] | 3.13 −log M |
| AcIIIKGVPGVGKNH2 [IK-K11] | 2.58 −log M |
| AcIIIKGVPGVGVPGVGKNH2 [IK-K16] | 3.03 −log M |
| AcKGVPGVGKNH2 [K-K8] | 2.10 −log M |
| RFRF [[RF]2] | 4.40 −log M |
| RFRFRF [[RF]3] | 2.64 −log M |
| RFRFRFRF [[RF]4] | 3.52 −log M |
| RFRFRFRFRF [[RF]5] | 4.70 −log M |
| V6K2GRGDS | 4.83 −log M |
